According to patent publication US11135192B2, “Inhibitors for treating diseases characterized by atrial enlargement or remodeling” (Novartis AG, priority 2012, dated 2021):

Legend:
[1] = tested on: patients with heart failure with preserved ejection fraction; assay: Blood pressure change in the same HF-PEF study; assay type: in vivo, human; conditions: mean (SD)
Procedure: (§1) The primary study endpoint is the change from baseline in NT-proBNP assessed at 12 weeks, and is analyzed using the last observation after baseline carried forward. Secondary endpoints include changes in echocardiography measures (left ventricular volumes and ejection fraction, left atrial volume, measures of diastolic function), change in blood pressure, as well as change in New York Heart Association Class (NYHA) clinical composite assessment and quality of life (Kansas City Cardiomyopathy Questionnaire).
(§2) Echocardiography studies are performed at screening, randomization, at week 12, and week 36 or at end of study or early termination visits. Echocardiograms performed at screening are evaluated by local readers for qualifying information. All other echocardiograms are only performed in patients meeting NT-proBNP entry criterion and are evaluated centrally. For assessment of global ventricular size and function, left ventricular end-diastolic and end-systolic volumes are obtained utilizing the Simpson's rule method and left ventricular ejection fraction is derived in the usual fashion. Maximal left atrial dimension is measured in the parasternal long-axis view, and left atrial volume is assessed with the Simpson's rule method and indexed to body surface area. Measurements are made in triplicate in accordance with the recommendations of the American Society of Echocardiography. Blood pressure and heart rate are measured at all study visits with a calibrated standard sphygmomanometer and appropriate size cuff. The use of concomitant medication is recorded at each study visit.

[2] = tested on: patients with heart failure with preserved ejection fraction; assay: Plasma NT-proBNP in the 37-week randomized, double-blind study of LCZ696 compared to valsartan; assay type: in vivo, human; conditions: for NT-proBNP (pg/ml) at 12 weeks: 12 weeks / NT-proBNP (pg/ml) at 36 weeks: 36 weeks / NT-proBNP (pg/ml) at 12 weeks: Baseline / NT-proBNP (pg/ml) at 36 weeks: Baseline: geometric mean; for NT-proBNP (pg/ml) at 12 weeks: 12 weeks: after 12 weeks of treatment, target LCZ696 200 mg or valsartan 160 mg twice daily; for NT-proBNP (pg/ml) at 36 weeks: 36 weeks: after 36 weeks of treatment; for NT-proBNP (pg/ml) at 12 weeks: Baseline: baseline of patients analysed at 12 weeks; for NT-proBNP (pg/ml) at 36 weeks: Baseline: baseline of patients analysed at 36 weeks
Source text: Men and women aged 40 years or older with a left ventricular ejection fraction of 45% or above, and a documented history of heart failure with associated signs or symptoms (dyspnea on exertion, orthopnea, paroxysmal dyspnea, and peripheral edema) are eligible. Patients are required to have an NT-proBNP>400 pg/mL at screening, be on diuretic therapy, and have a systolic blood pressure less than 140 mm Hg, or 160 mm Hg or less if on three or more blood pressure medications at randomization. Additional inclusion criteria include an estimated glomerular filtration rate (eGFR) of at least 30 ml/min/1.73 m^2 at screening (calculated by the Modification of Diet in Renal Disease formula) and a potassium of no more than 5.2 mmol/L.
as §1

[3] = tested on: patients with heart failure with preserved ejection fraction; assay: Safety and tolerability (adverse events, target dose achieved) in the same HF-PEF study
[4] = tested on: patients with heart failure with preserved ejection fraction; assay: Echocardiography (left atrial and left ventricular measures) in the same HF-PEF study; assay type: in vivo, human
Procedure: as §1, §2

[5] = tested on: patients with heart failure with preserved ejection fraction
Procedure: as §1
The clinical composite assessment is based on a composite of the NYHA functional classification, patient global assessment and major adverse clinical events. […] Patients are determined to be worse if at the endpoint visit they experienced a major adverse cardiac event during the double blind treatment or reported worsening of their NYHA class or patient global assessment. Patients are considered unchanged if they are neither improved nor worsened.

[6] = at 36 weeks, no unit printed in b206 (mm Hg)

SMILES | diastolic blood pressure reduction ([1]; after 12 weeks of treatment) | systolic blood pressure reduction ([1]; after 12 weeks of treatment) | diastolic blood pressure reduction [1, 6] | systolic blood pressure reduction [1, 6] | NT-proBNP (pg/ml) at 12 weeks: 12 weeks [2] [pg/mL] | NT-proBNP (pg/ml) at 36 weeks: 36 weeks [2] [pg/mL] | NT-proBNP (pg/ml) at 12 weeks: Baseline [2] [pg/mL] | NT-proBNP (pg/ml) at 36 weeks: Baseline [2] [pg/mL] | LA Volume, Δ from Baseline ([4]; at 36 weeks) [mL] | LA dimension, Δ from Baseline ([4]; at 36 weeks) [cm] | Relative wall thickness, Δ from Baseline ([4]; at 36 weeks) | LA Volume, Baseline ([4]; baseline) [mL] | LA dimension, Baseline ([4]; baseline) [cm] | also measured
CCCCC(=O)N(Cc1ccc(-c2ccccc2-c2nnn[nH]2)cc1)[C@H](C(=O)O)C(C)C [Valsartan, (S)—N-valeryl-N-{[2′-(1H-tetrazole-5-yl)-biphenyl-4-yl]-methyl}-valine, reference compound] | 2.1 (11) mm Hg | 2.9 (17) mm Hg | 0.34 (11.5) | 1.5 (18) | 835 | 607 | 862 | 822 | 0.37 | −0.08 | +0.01% | 68.28 | 3.73 | deaths ([3]; among the serious adverse events): two; adverse event atrial fibrillation, number of patients ([3]; during the trial): 8 patients; adverse event atrial fibrillation, percent of patients ([3]; during the trial): 5.3%; one or more serious adverse events, number of patients ([3]; during the trial): 30 patients; one or more serious adverse events, percent of patients ([3]; during the trial): 20%; Angio-oedema, patients ([3]; the LCZ696 patient did not need admission to hospital): no patients; LA Volume Index, Δ from Baseline ([4]; at 36 weeks): 0.31 ml/m^2; LV mass index, Δ from Baseline ([4]; at 36 weeks): −1.93 g/m^2; LA Volume Index, Baseline ([4]; baseline): 36.80 ml/m^2; LV mass index, Baseline ([4]; baseline): 79.45 g/m^2
CCCCC(=O)N(Cc1ccc(-c2ccccc2-c2nnn[n-]2)cc1)C(C(=O)[O-])C(C)C.CCCCC(=O)N(Cc1ccc(-c2ccccc2-c2nnn[n-]2)cc1)C(C(=O)[O-])C(C)C.CCOC(=O)C(C)CC(Cc1ccc(-c2ccccc2)cc1)NC(=O)CCC(=O)[O-].CCOC(=O)C(C)CC(Cc1ccc(-c2ccccc2)cc1)NC(=O)CCC(=O)[O-].O.O.O.O.O.[Na+].[Na+].[Na+].[Na+].[Na+].[Na+] [LCZ696, trisodium [3-((1S,3R)-1-biphenyl-4-ylmethyl-3-ethoxycarbonyl-1-butylcarbamoyl) propionate-(S)-3′-methyl-2′-(pentanoyl(2″-(tetrazol-5-ylate)biphenyl-4′-ylmethyl)amino)butyrate]hemipentahydrate] | 4.9 (10) mm Hg | 9.3 (SD 14) mm Hg | 5.1 (10.8) | 7.5 (15) | 605 | 496 | 783 | 763 | -4.61 | −0.15 | +0.01% | 65.26 | 3.68 | reduction in NT-proBNP in patients with diabetes compared with patients without diabetes ([2]; 12 weeks, prespecified subgroup, interaction p=0.02): differentially greater reduction; reduction in NT-proBNP versus valsartan after adjustment for the change in blood pressure ([2]; 12 weeks, p=0.01): greater reduction; NT-proBNP versus baseline ([2]; 36 weeks): remained reduced from baseline; early reduction in NT-proBNP compared with the valsartan group ([2]; after 4 weeks of treatment, p=0.083): not significant; NYHA class improvement between groups ([5]; at 12 weeks, p=0.11): did not differ significantly; NYHA class compared with the valsartan group ([5]; at 36 weeks, p=0.05): improvement; Left atrial volume (result in words) ([4]; after 36 weeks of treatment, p=0.003): reduced significantly; left atrial dimension (result in words) ([4]; after 36 weeks of treatment, p=0.034): reduced significantly
